Assay results from ChEMBL document CHEMBL1671627, “Increasing trends in antimicrobial resistance among clinically important anaerobes and Bacteroides fragilis isolates causing nosocomial infections: emerging resistance to carbapenems” (2008).
Converted amounts (≈) assume the structure as drawn.

Assays:
Bacteroides uniformis [1] = assay: Antibacterial activity against beta-lactamase producing Bacteroides uniformis assessed as resistant isolates by CLSI agar dilution method; assay type: functional
[2] = test system: Fusobacterium necrophorum; assay: Antibacterial activity against Fusobacterium necrophorum assessed as resistant isolates by CLSI agar dilution method; assay type: functional
Clostridium septicum [3] = assay: Antibacterial activity against beta-lactamase producing Clostridium septicum by CLSI agar dilution method; assay type: functional
Fusobacterium mortiferum [4] = assay: Antibacterial activity against Fusobacterium mortiferum assessed as susceptible isolates by CLSI agar dilution method; assay type: functional
[5] = test system: Bacteroides thetaiotaomicron; assay: Antibacterial activity against beta-lactamase producing Bacteroides thetaiotaomicron assessed as resistant isolates by CLSI agar dilution method; assay type: functional
[6] = test system: Prevotella melaninogenica; assay: Antibacterial activity against Prevotella melaninogenica assessed as susceptible isolates by CLSI agar dilution method; assay type: functional
Bacteroides caccae [7] = assay: Antibacterial activity against beta-lactamase producing Bacteroides caccae assessed as susceptible isolates by CLSI agar dilution method; assay type: functional
Fusobacterium varium [8] = assay: Antibacterial activity against Fusobacterium varium assessed as susceptible isolates by CLSI agar dilution method; assay type: functional
Finegoldia magna [9] = assay: Antibacterial activity against beta-lactamase producing Finegoldia magna assessed as susceptible isolates by CLSI agar dilution method; assay type: functional
Bacteroides uniformis [10] = assay: Antibacterial activity against beta-lactamase producing Bacteroides uniformis by CLSI agar dilution method; assay type: functional
Prevotella intermedia [11] = assay: Antibacterial activity against Prevotella intermedia assessed as resistant isolates by CLSI agar dilution method; assay type: functional
Clostridium tertium [12] = assay: Antibacterial activity against beta-lactamase producing Clostridium tertium by CLSI agar dilution method; assay type: functional
Phocaeicola vulgatus [13] = assay: Antibacterial activity against beta-lactamase producing Bacteroides vulgatus by CLSI agar dilution method; assay type: functional
Bacteroides uniformis [14] = assay: Antibacterial activity against beta-lactamase producing Bacteroides uniformis assessed as susceptible isolates by CLSI agar dilution method; assay type: functional
[15] = test system: Peptoniphilus asaccharolyticus; assay: Antibacterial activity against beta-lactamase producing Peptoniphilus asaccharolyticus assessed as resistant isolates by CLSI agar dilution method; assay type: functional
Finegoldia magna [16] = assay: Antibacterial activity against beta-lactamase producing Finegoldia magna by CLSI agar dilution method; assay type: functional
Clostridium septicum [17] = assay: Antibacterial activity against beta-lactamase producing Clostridium septicum assessed as resistant isolates by CLSI agar dilution method; assay type: functional
Phocaeicola vulgatus [18] = assay: Antibacterial activity against beta-lactamase producing Bacteroides vulgatus assessed as susceptible isolates by CLSI agar dilution method; assay type: functional
Clostridium septicum [19] = assay: Antibacterial activity against beta-lactamase producing Clostridium septicum assessed as susceptible isolates by CLSI agar dilution method; assay type: functional
[20] = test system: Bacteroides thetaiotaomicron; assay: Antibacterial activity against beta-lactamase producing Bacteroides thetaiotaomicron assessed as susceptible isolates by CLSI agar dilution method; assay type: functional
[21] = test system: Clostridium paraputrificum; assay: Antibacterial activity against beta-lactamase producing Clostridium paraputrificum assessed as susceptible isolates by CLSI agar dilution method; assay type: functional
[22] = test system: Clostridium paraputrificum; assay: Antibacterial activity against beta-lactamase producing Clostridium paraputrificum by CLSI agar dilution method; assay type: functional
Finegoldia magna [23] = assay: Antibacterial activity against beta-lactamase producing Finegoldia magna assessed as resistant isolates by CLSI agar dilution method; assay type: functional
[24] = test system: Fusobacterium necrophorum; assay: Antibacterial activity against Fusobacterium necrophorum by CLSI agar dilution method; assay type: functional
Parvimonas micra [25] = assay: Antibacterial activity against beta-lactamase producing Micromonas micros assessed as susceptible isolates by CLSI agar dilution method; assay type: functional
Prevotella buccae [26] = assay: Antibacterial activity against Prevotella buccae assessed as resistant isolates by CLSI agar dilution method; assay type: functional, Segatella buccae
[27] = test system: Peptostreptococcus anaerobius; assay: Antibacterial activity against beta-lactamase producing Peptostreptococcus anaerobius by CLSI agar dilution method; assay type: functional
Prevotella intermedia [28] = assay: Antibacterial activity against Prevotella intermedia by CLSI agar dilution method; assay type: functional
Prevotella buccae [29] = assay: Antibacterial activity against Prevotella buccae by CLSI agar dilution method; assay type: functional; conditions: Segatella buccae
Fusobacterium mortiferum [30] = assay: Antibacterial activity against Fusobacterium mortiferum by CLSI agar dilution method; assay type: functional
Prevotella bivia [31] = assay: Antibacterial activity against Prevotella bivia assessed as resistant isolates by CLSI agar dilution method; assay type: functional
Clostridium tertium [32] = assay: Antibacterial activity against beta-lactamase producing Clostridium tertium assessed as susceptible isolates by CLSI agar dilution method; assay type: functional
Parvimonas micra [33] = assay: Antibacterial activity against beta-lactamase producing Micromonas micros by CLSI agar dilution method; assay type: functional
[34] = test system: Peptoniphilus asaccharolyticus; assay: Antibacterial activity against beta-lactamase producing Peptoniphilus asaccharolyticus assessed as susceptible isolates by CLSI agar dilution method; assay type: functional
Fusobacterium nucleatum [35] = assay: Antibacterial activity against Fusobacterium nucleatum assessed as susceptible isolates by CLSI agar dilution method; assay type: functional
Bacteroides caccae [36] = assay: Antibacterial activity against beta-lactamase producing Bacteroides caccae assessed as resistant isolates by CLSI agar dilution method; assay type: functional
Bacteroides fragilis [37] = assay: Antibacterial activity against Bacteroides fragilis by CLSI agar dilution method; assay type: functional
Fusobacterium nucleatum [38] = assay: Antibacterial activity against Fusobacterium nucleatum by CLSI agar dilution method; assay type: functional
Prevotella bivia [39] = assay: Antibacterial activity against Prevotella bivia assessed as susceptible isolates by CLSI agar dilution method; assay type: functional
Prevotella intermedia [40] = assay: Antibacterial activity against Prevotella intermedia assessed as susceptible isolates by CLSI agar dilution method; assay type: functional
[41] = test system: Fusobacterium necrophorum; assay: Antibacterial activity against Fusobacterium necrophorum assessed as susceptible isolates by CLSI agar dilution method; assay type: functional
Fusobacterium mortiferum [42] = assay: Antibacterial activity against Fusobacterium mortiferum assessed as resistant isolates by CLSI agar dilution method; assay type: functional
[43] = test system: Bacteroides thetaiotaomicron; assay: Antibacterial activity against beta-lactamase producing Bacteroides thetaiotaomicron by CLSI agar dilution method; assay type: functional
[44] = test system: Peptoniphilus asaccharolyticus; assay: Antibacterial activity against beta-lactamase producing Peptoniphilus asaccharolyticus by CLSI agar dilution method; assay type: functional
Clostridium perfringens = assay: microbe, parasite or virus in culture; assay type: functional
Bacteroides fragilis [45] = assay: Antibacterial activity against Bacteroides fragilis assessed as susceptible isolates by CLSI agar dilution method; assay type: functional
Bacteroides caccae [46] = assay: Antibacterial activity against beta-lactamase producing Bacteroides caccae by CLSI agar dilution method; assay type: functional
[47] = test system: Prevotella melaninogenica; assay: Antibacterial activity against Prevotella melaninogenica assessed as resistant isolates by CLSI agar dilution method; assay type: functional
[48] = test system: Clostridium paraputrificum; assay: Antibacterial activity against beta-lactamase producing Clostridium paraputrificum assessed as resistant isolates by CLSI agar dilution method; assay type: functional
Prevotella buccae [49] = assay: Antibacterial activity against Prevotella buccae assessed as susceptible isolates by CLSI agar dilution method; assay type: functional, Segatella buccae
[50] = test system: Peptostreptococcus anaerobius; assay: Antibacterial activity against beta-lactamase producing Peptostreptococcus anaerobius assessed as resistant isolates by CLSI agar dilution method; assay type: functional
Veillonella parvula = assay: Antibacterial activity against Veillonella parvula by CLSI agar dilution method; assay type: functional
Bacteroides fragilis [51] = assay: Antibacterial activity against Bacteroides fragilis assessed as resistant isolates by CLSI agar dilution method; assay type: functional
Fusobacterium varium [52] = assay: Antibacterial activity against Fusobacterium varium assessed as resistant isolates by CLSI agar dilution method; assay type: functional
Clostridium tertium [53] = assay: Antibacterial activity against beta-lactamase producing Clostridium tertium assessed as resistant isolates by CLSI agar dilution method; assay type: functional
Fusobacterium nucleatum [54] = assay: Antibacterial activity against Fusobacterium nucleatum assessed as resistant isolates by CLSI agar dilution method; assay type: functional
Phocaeicola vulgatus [55] = assay: Antibacterial activity against beta-lactamase producing Bacteroides vulgatus assessed as resistant isolates by CLSI agar dilution method; assay type: functional
[56] = test system: Prevotella melaninogenica; assay: Antibacterial activity against Prevotella melaninogenica by CLSI agar dilution method; assay type: functional
Parvimonas micra [57] = assay: Antibacterial activity against beta-lactamase producing Micromonas micros assessed as resistant isolates by CLSI agar dilution method; assay type: functional
[58] = test system: Peptostreptococcus anaerobius; assay: Antibacterial activity against beta-lactamase producing Peptostreptococcus anaerobius assessed as susceptible isolates by CLSI agar dilution method; assay type: functional
Prevotella bivia [59] = assay: Antibacterial activity against Prevotella bivia by CLSI agar dilution method; assay type: functional
Fusobacterium varium [60] = assay: Antibacterial activity against Fusobacterium varium by CLSI agar dilution method; assay type: functional

## C[C@@H](O)[C@H]1C(=O)N2C(C(=O)O)=C(SCCNC=N)C[C@H]12 [IMIPENEM ANHYDROUS]
Bacteroides uniformis [1]
  Activity: 4%
[2]
  Activity: 4%
Clostridium septicum [3]
  MIC50: 0.25 µg/mL (≈ 0.835 µM)
  MIC90: 8 µg/mL (≈ 26.7 µM)
Fusobacterium mortiferum [4]
  Activity: 96%
[5]
  Activity: 0%
[6]
  Activity: 94%
Bacteroides caccae [7]
  Activity: 96%
Fusobacterium varium [8]
  Activity: 96%
Finegoldia magna [9]
  Activity: 100%
Bacteroides uniformis [10]
  MIC50: 1 µg/mL (≈ 3.34 µM)
  MIC90: 4 µg/mL (≈ 13.4 µM)
Prevotella intermedia [11]
  Activity: 6%
Clostridium tertium [12]
  MIC50: 0.25 µg/mL (≈ 0.835 µM)
  MIC90: 8 µg/mL (≈ 26.7 µM)
Phocaeicola vulgatus [13]
  MIC50: 1 µg/mL (≈ 3.34 µM)
  MIC90: 4 µg/mL (≈ 13.4 µM)
Bacteroides uniformis [14]
  Activity: 96%
[15]
  Activity: 0%
Finegoldia magna [16]
  MIC50: 0.06 µg/mL (≈ 0.2 µM)
  MIC90: 0.5 µg/mL (≈ 1.67 µM)
Clostridium septicum [17]
  Activity: 4%
Phocaeicola vulgatus [18]
  Activity: 96%
Clostridium septicum [19]
  Activity: 85%
[20]
  Activity: 93%
[21]
  Activity: 85%
[22]
  MIC50: 0.25 µg/mL (≈ 0.835 µM)
  MIC90: 8 µg/mL (≈ 26.7 µM)
Finegoldia magna [23]
  Activity: 0%
[24]
  MIC: 0.01 µg/mL (≈ 0.0334 µM)
  MIC50: 0.5 µg/mL (≈ 1.67 µM)
  MIC90: 4 µg/mL (≈ 13.4 µM)
Parvimonas micra [25]
  Activity: 100%
Prevotella buccae [26]
  Activity: 6%
[27]
  MIC50: 0.06 µg/mL (≈ 0.2 µM)
  MIC90: 0.5 µg/mL (≈ 1.67 µM)
Prevotella intermedia [28]
  MIC50: 0.25 µg/mL (≈ 0.835 µM)
  MIC90: 0.5 µg/mL (≈ 1.67 µM)
Prevotella buccae [29]
  MIC50: 0.25 µg/mL (≈ 0.835 µM)
  MIC90: 0.5 µg/mL (≈ 1.67 µM)
Fusobacterium mortiferum [30]
  MIC: 0.01 µg/mL (≈ 0.0334 µM)
  MIC50: 0.5 µg/mL (≈ 1.67 µM)
  MIC90: 4 µg/mL (≈ 13.4 µM)
Prevotella bivia [31]
  Activity: 6%
Clostridium tertium [32]
  Activity: 85%
Parvimonas micra [33]
  MIC50: 0.06 µg/mL (≈ 0.2 µM)
  MIC90: 0.5 µg/mL (≈ 1.67 µM)
[34]
  Activity: 100%
Fusobacterium nucleatum [35]
  Activity: 96%
Bacteroides caccae [36]
  Activity: 4%
Bacteroides fragilis [37]
  MIC50: 0.5 µg/mL (≈ 1.67 µM)
  MIC90: 4 µg/mL (≈ 13.4 µM)
Fusobacterium nucleatum [38]
  MIC: 0.01 µg/mL (≈ 0.0334 µM)
  MIC50: 0.5 µg/mL (≈ 1.67 µM)
  MIC90: 4 µg/mL (≈ 13.4 µM)
Prevotella bivia [39]
  Activity: 94%
Prevotella intermedia [40]
  Activity: 94%
[41]
  Activity: 96%
Fusobacterium mortiferum [42]
  Activity: 4%
[43]
  MIC50: 0.5 µg/mL (≈ 1.67 µM)
  MIC90: 4 µg/mL (≈ 13.4 µM)
[44]
  MIC50: 0.06 µg/mL (≈ 0.2 µM)
  MIC90: 0.5 µg/mL (≈ 1.67 µM)
Clostridium perfringens
  MIC50: 0.25 µg/mL (≈ 0.835 µM)
  MIC90: 8 µg/mL (≈ 26.7 µM)
Bacteroides fragilis [45]
  Activity: 93%
Bacteroides caccae [46]
  MIC50: 1 µg/mL (≈ 3.34 µM)
  MIC90: 4 µg/mL (≈ 13.4 µM)
[47]
  Activity: 6%
[48]
  Activity: 4%
Prevotella buccae [49]
  Activity: 94%
[50]
  Activity: 0%
Veillonella parvula
  MIC: 0.12 µg/mL (≈ 0.401 µM)
Bacteroides fragilis [51]
  Activity: 3%
Fusobacterium varium [52]
  Activity: 4%
Clostridium tertium [53]
  Activity: 4%
Fusobacterium nucleatum [54]
  Activity: 4%
Phocaeicola vulgatus [55]
  Activity: 4%
[56]
  MIC50: 0.25 µg/mL (≈ 0.835 µM)
  MIC90: 0.5 µg/mL (≈ 1.67 µM)
Parvimonas micra [57]
  Activity: 0%
[58]
  Activity: 100%
Prevotella bivia [59]
  MIC50: 0.25 µg/mL (≈ 0.835 µM)
  MIC90: 0.5 µg/mL (≈ 1.67 µM)
Fusobacterium varium [60]
  MIC: 0.01 µg/mL (≈ 0.0334 µM)
  MIC50: 0.5 µg/mL (≈ 1.67 µM)
  MIC90: 4 µg/mL (≈ 13.4 µM)
